Data on 25 compounds can be found in patent publication US20080161232A1, “C5a Receptor Antagonist” (JERINI AG, priority 2005, published 2008).

SMILES strings stand for the structures. Like-named read-outs stand apart in the source and are kept apart here. Starred links: 1 amine or outer side, 2 acyl side, 3 side chain; linkers in the order of their positions; H or OH if unused. Positions of bridges follow the written chain, without caps; N, C: chain ends. Non-standard residues stand in square brackets, D forms with d. Residues, ends and D or L forms follow the SMILES beside them. *: point of attachment. Phe(3,4,5-F3) = N[C@@H](Cc1cc(F)c(F)c(F)c1)C(=O)O; Phe(Nα-CONH2) = NC(=O)N[C@@H](Cc1ccccc1)C(=O)*; dβ3hPhg = O=C(C[C@H](N[*:1])c1ccccc1)[*:2]; NMe2Phe = CN(C)[C@@H](Cc1ccccc1)C(=O)*; Phe(4-F) = N[C@@H](Cc1ccc(F)cc1)C(=O)O; dPhe(2-Me) = Cc1ccccc1C[C@@H](N)C(=O)O; X10 = CCN(CC)[C@@H](Cc1ccccc1)C(=O)*; Acetyl(4-pyridyl) = O=C(Cc1ccncc1)*; Bta = N[C@@H](Cc1csc2ccccc12)C(=O)O; NEtPhe = CCN[C@@H](Cc1ccccc1)C(=O)O; Hydrocinnamoyl = O=C(CCc1ccccc1)*; Hyp = O=C(O)[C@@H]1C[C@@H](O)CN1; d(hLeu) = CC(C)CC[C@@H](N)C(=O)O; 2Thi = N[C@@H](Cc1cccs1)C(=O)O; Cit = NC(=O)NCCC[C@H](N)C(=O)O; dCha = N[C@H](CC1CCCCC1)C(=O)O; Nicotinoyl = O=C(c1cccnc1)*; Morpholide = C1CN(*)CCO1; Nle = CCCC[C@H](N)C(=O)O; Orn = NCCC[C@H](N)C(=O)O; Aze = O=C(O)[C@@H]1CCN1; Fluoroacetyl = O=C(CF)*; CO = O=C([*:1])[*:2]; Propionyl = CCC(=O)*

This assay addresses T1, human C5aR(CD88) (Homo sapiens, UniProt P21730).
T1 construct: expressed in transfected cells; host or cells: rat basophilic leukemia cells (RBL)
T1 sequence (P21730 1-350): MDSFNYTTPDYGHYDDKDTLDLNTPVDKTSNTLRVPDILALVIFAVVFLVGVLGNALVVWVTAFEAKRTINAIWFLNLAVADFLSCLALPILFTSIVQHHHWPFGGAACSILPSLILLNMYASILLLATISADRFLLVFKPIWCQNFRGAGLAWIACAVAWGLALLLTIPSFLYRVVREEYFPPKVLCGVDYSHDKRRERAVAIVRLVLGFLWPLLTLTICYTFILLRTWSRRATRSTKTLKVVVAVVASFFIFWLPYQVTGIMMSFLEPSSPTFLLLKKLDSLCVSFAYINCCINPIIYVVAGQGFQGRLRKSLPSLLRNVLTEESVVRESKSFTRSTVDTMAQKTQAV
Nature of the assay: Determination of the IC50 value in an enzyme release assay (functional assay, antagonistic activity). It is filed as cell-based. The conditions noted are these: antagonistic activity, IC50 group in enzyme release assay, RBL cells expressing human C5aR(CD88).

For `CC(=O)N[C@@H](Cc1ccccc1)C(=O)N[C@@H](CCCN)C(=O)N1CCC[C@H]1C(=O)N[C@H](CCC(C)C)C(=O)N[C@@H](Cc1cc(F)c(F)c(F)c1)C(=O)N[C@@H](Cc1ccccc1)C(N)=O` [Compound 305, Ac-Phe-Orn-Pro-hle-Tff-Phe-NH2] (Ac-F[Orn]P[d(hLeu)][Phe(3,4,5-F3)]F-NH2), for the setting “read-out: activity (group)”, the IC50 fell in the range of 0.05 to 0.2 µM.
As to `CC(=O)N[C@@H](Cc1ccccc1)C(=O)N[C@@H](CCCN)C(=O)N1CCC[C@H]1C(=O)N[C@H](CCC(C)C)C(=O)N[C@@H](Cc1c[nH]c2ccccc12)C(=O)N[C@@H](Cc1ccccc1)C(N)=O` [Compound 306, Ac-Phe-Orn-Pro-hle-Trp-Phe-NH2] (Ac-F[Orn]P[d(hLeu)]WF-NH2), the IC50 (read-out: activity (group)) was 0.05 to 0.2 µM.
Regarding `CC[C@@H](C)[C@@H](NC(=O)[C@@H]1CCCN1C(=O)[C@H](CCCN)NC(=O)[C@H](Cc1ccccc1)NC(C)=O)C(=O)N[C@@H](Cc1c[nH]c2ccccc12)C(=O)N[C@@H](Cc1ccccc1)C(N)=O` [Compound 307, Ac-Phe-Orn-Pro-ile-Trp-Phe-NH2] (Ac-F[Orn]P[dI]WF-NH2), the IC50 (read-out: activity (group)) was 0.005 to 0.01 µM.
For the compound `CC(=O)N[C@@H](Cc1ccccc1)C(=O)N[C@@H](CCCN)C(=O)N1CCC[C@H]1C(=O)N[C@H](Cc1ccccc1C)C(=O)N[C@@H](Cc1csc2ccccc12)C(=O)N[C@@H](Cc1ccccc1)C(N)=O` [Compound 308, Ac-Phe-Orn-Pro-omf-Bta-Phe-NH2] (Ac-F[Orn]P[dPhe(2-Me)][Bta]F-NH2), for the setting “read-out: activity (group)”, the IC50 is 0.05 to 0.2 µM.
With `CC(=O)N[C@@H](Cc1ccccc1)C(=O)N[C@@H](CCCN)C(=O)N[C@@H](CO)C(=O)N[C@H](CC1CCCCC1)C(=O)N[C@@H](Cc1csc2ccccc12)C(=O)N[C@@H](Cc1ccccc1)C(N)=O` [Compound 309, Ac-Phe-Orn-Ser-cha-Bta-Phe-NH2] (Ac-F[Orn]S[dCha][Bta]F-NH2), the IC50 (read-out: activity (group)) lay within 0.02 to 0.05 µM.
Still for that read-out and setting: for `CC(=O)N[C@@H](CO)C(=O)N[C@@H](Cc1ccccc1)C(=O)N[C@@H](CCCN)C(=O)N1CC[C@H]1C(=O)N[C@H](CC1CCCCC1)C(=O)N[C@@H](Cc1csc2ccccc12)C(=O)N[C@@H](Cc1ccccc1)C(N)=O` [Compound 310, Ac-Ser-Phe-Orn-Aze-cha-Bta-Phe-NH2] (Ac-SF[Orn][Aze][dCha][Bta]F-NH2) the value was 0.01 to 0.02 µM.
Same read-out and setting: as for `CC(=O)N[C@@H](Cc1cccs1)C(=O)N[C@H]1CCCNC(=O)[C@H](Cc2ccccc2)NC(=O)[C@H](Cc2csc3ccccc23)NC(=O)[C@@H](CCC(C)C)NC(=O)[C@@H]2CCCN2C1=O` [Compound 311, Ac-Thi-[Orn-Pro-hle-Bta-Phe]] (Ac-[2Thi][Orn]P[d(hLeu)][Bta]F; lactam 2-C), the figure is 0.05 to 0.2 µM; as for `CC(=O)N[C@@H](Cc1cccs1)C(=O)N[C@@H](CCCN)C(=O)N1CCC[C@H]1C(=O)N[C@H](CC1CCCCC1)C(=O)N[C@@H](Cc1csc2ccccc12)C(=O)N[C@@H](Cc1ccccc1)C(N)=O` [Compound 312, Ac-Thi-Orn-Pro-cha-Bta-Phe-NH2] (Ac-[2Thi][Orn]P[dCha][Bta]F-NH2), 0.02 to 0.05 µM.
Still for that read-out and setting: as for `CC(=O)N[C@@H](Cc1cccs1)C(=O)N[C@@H](CCCN)C(=O)N1CCC[C@H]1C(=O)N[C@H](CC1CCCCC1)C(=O)N[C@@H](Cc1csc2ccccc12)C(=O)N[C@@H](Cc1cccs1)C(N)=O` [Compound 313, Ac-Thi-Orn-Pro-cha-Bta-Thi-NH2] (Ac-[2Thi][Orn]P[dCha][Bta][2Thi]-NH2), the figure is 0.02 to 0.05 µM; as for `CC(=O)N[C@H](C(=O)N[C@@H](Cc1ccccc1)C(=O)N[C@@H](CCCN)C(=O)N1CC[C@H]1C(=O)N[C@H](CC1CCCCC1)C(=O)N[C@@H](Cc1csc2ccccc12)C(=O)N[C@@H](Cc1ccccc1)C(N)=O)[C@@H](C)O` [Compound 314, Ac-Thr-Phe-Orn-Aze-cha-Bta-Phe-NH2] (Ac-TF[Orn][Aze][dCha][Bta]F-NH2), 0.02 to 0.05 µM; as for `CCCC[C@@H]1NC(=O)[C@H](Cc2csc3ccccc23)NC(=O)[C@@H](CC2CCCCC2)NC(=O)[C@@H]2CCCN2C(=O)[C@@H](NCc2ccccc2)CCCNC1=O` [Compound 315, Bzl-[Orn-Pro-cha-Bta-Nle]], 0.05 to 0.2 µM.
Regarding `CCC(=O)N[C@@H](Cc1ccccc1)C(=O)N[C@@H](CCCN)C(=O)N1CCC[C@H]1C(=O)N[C@H](CC1CCCCC1)C(=O)N[C@@H](Cc1csc2ccccc12)C(=O)N[C@@H](Cc1ccccc1)C(N)=O` [Compound 316, CH3CH2CO-Phe-Orn-Pro-cha-Bta-Phe-NH2] (Propionyl-F[Orn]P[dCha][Bta]F-NH2), the IC50 (read-out: activity (group)) lay within 0.02 to 0.05 µM.
The same measure, in the same setting: as for `CCCC[C@@H]1NC(=O)[C@H](Cc2c[nH]c3ccccc23)NC(=O)[C@@H](CCC(C)C)NC(=O)[C@H](CO)NC(=O)[C@@H](NC(=O)[C@H](Cc2ccccc2)N(CC)CC)CCCNC1=O` [Compound 317, Def-[Orn-Ser-hle-Trp-Nle]] (X10-[Orn]S[d(hLeu)]W[Nle]; lactam 1-C), the figure is 0.05 to 0.2 µM.
Still for that read-out and setting: for `N[C@@H](CC(=O)N[C@@H](Cc1ccccc1)C(=O)N[C@H]1CCCNC(=O)[C@H](Cc2ccccc2)NC(=O)[C@H](Cc2c[nH]c3ccccc23)NC(=O)[C@@H](CC2CCCCC2)NC(=O)[C@@H]2C[C@@H](O)CN2C1=O)c1ccccc1` [Compound 318, Eby-Phe-[Orn-Hyp-cha-Trp-Phe]] (dβ3hPhg-F[Orn][Hyp][dCha]WF; lactam 2-C) the value was 0.05 to 0.2 µM.
Still for that read-out and setting: as for `CCCC[C@@H]1NC(=O)[C@H](Cc2ccc(F)cc2)NC(=O)[C@@H](CCC(C)C)NC(=O)[C@@H]2CCCN2C(=O)[C@@H](NC(=O)[C@H](Cc2ccccc2)NCC)CCCNC1=O` [Compound 319, Eth-Phe-[Orn-Pro-hle-Pff-Nle]] (H-[NEtPhe][Orn]P[d(hLeu)][Phe(4-F)][Nle]; lactam 2-C), the figure is 0.05 to 0.2 µM.
On to `NCCC[C@H](NC(=O)[C@H](Cc1ccccc1)NC(=O)CF)C(=O)N1CC[C@H]1C(=O)N[C@H](CC1CCCCC1)C(=O)N[C@@H](Cc1csc2ccccc12)C(=O)N[C@@H](Cc1ccccc1)C(N)=O` [Compound 321, FAc-Phe-Orn-Aze-cha-Bta-Phe-NH2] (Fluoroacetyl-F[Orn][Aze][dCha][Bta]F-NH2), for which the IC50 (activity (group)) fell in the range of 0.02 to 0.05 µM.
With `NC(=O)N[C@@H](Cc1ccccc1)C(=O)N[C@H]1CCCNC(=O)[C@H](Cc2ccccc2)NC(=O)[C@H](Cc2c[nH]c3ccccc23)NC(=O)[C@@H](CC2CCCCC2)NC(=O)[C@@H]2C[C@@H](O)CN2C1=O` [Compound 323, Fai-Phe-[Orn-Hyp-cha-Trp-Phe]] ({Phe(Nα-CONH2)}-[Orn][Hyp][dCha]WF; lactam 1-C), under “read-out: activity (group)”, the IC50 was 0.05 to 0.2 µM.
Same read-out and setting: as for `NCCC[C@H](NC(=O)CCc1ccccc1)C(=O)N1CCC[C@H]1C(=O)N[C@H](CC1CCCCC1)C(=O)N[C@@H](Cc1csc2ccccc12)C(=O)N[C@@H](Cc1ccccc1)C(N)=O` [Compound 324, Faz-Orn-Pro-cha-Bta-Phe-NH2] (Hydrocinnamoyl-[Orn]P[dCha][Bta]F-NH2), the figure is 0.05 to 0.2 µM; as for `CCCC[C@@H]1NC(=O)[C@H](Cc2c[nH]c3ccccc23)NC(=O)[C@@H](CC2CCCCC2)NC(=O)[C@@H]2CCCN2C(=O)[C@@H](NC(=O)[C@H](Cc2ccccc2)NC(=O)Cc2ccncc2)CCCNC1=O` [Compound 325, Fbi-Phe-[Orn-Pro-cha-Trp-Nle]] ({Acetyl(4-pyridyl)}-F[Orn]P[dCha]W[Nle]; lactam 2-C), 0.05 to 0.2 µM; as for `O=C(N[C@@H](Cc1ccccc1)C(=O)N[C@H]1CCCNC(=O)[C@H](Cc2ccccc2)NC(=O)[C@H](Cc2c[nH]c3ccccc23)NC(=O)[C@@H](CC2CCCCC2)NC(=O)[C@@H]2C[C@@H](O)CN2C1=O)c1cccnc1` [Compound 326, Fbn-Phe-[Orn-Hyp-cha-Trp-Phe]] (Nicotinoyl-F[Orn][Hyp][dCha]WF; lactam 2-C), 0.05 to 0.2 µM.
For the compound `CCCC[C@@H]1NC(=O)[C@H](Cc2c[nH]c3ccccc23)NC(=O)[C@@H](CC2CCCCC2)NC(=O)[C@@H]2CCCN2C(=O)[C@@H](NC(=O)[C@H](Cc2ccccc2)NC(=O)c2cccnc2)CCCNC1=O` [Compound 327, Fbn-Phe-[Orn-Pro-cha-Trp-Nle]] (Nicotinoyl-F[Orn]P[dCha]W[Nle]; lactam 2-C), under “read-out: activity (group)”, the IC50 lay in the range of 0.05 to 0.2 µM.
For the compound `CCCC[C@@H]1NC(=O)[C@H](Cc2c[nH]c3ccccc23)NC(=O)[C@@H](CC2CCCCC2)NC(=O)[C@@H]2CCCN2C(=O)[C@@H](NC(=O)[C@H](Cc2ccccc2)NC(=O)c2cccnc2)CCCNC1=O` [Compound 328, Fbn-Phe-[Orn-Pro-cha-Trp-Nle]] (Nicotinoyl-F[Orn]P[dCha]W[Nle]; lactam 2-C), where the note is “read-out: activity (group)”, the IC50 lay within 0.01 to 0.02 µM.
On the same count and under the same terms, as for `CC(C)CC[C@@H](NC(=O)[C@@H]1CCCN1C(=O)[C@H](CCCNC(N)=O)NC(=O)[C@H](Cc1ccccc1)NC(=O)c1cccnc1)C(=O)N[C@@H](Cc1csc2ccccc12)C(=O)N[C@@H](Cc1ccccc1)C(N)=O` [Compound 329, Fbn-Phe-Cit-Pro-hle-Bta-Phe-NH2] (Nicotinoyl-F[Cit]P[d(hLeu)][Bta]F-NH2), the figure is 0.05 to 0.2 µM.
In the case of `CCCC[C@@H]1NC(=O)[C@H](Cc2c[nH]c3ccccc23)NC(=O)[C@@H](CC2CCCCC2)NC(=O)[C@@H]2CCCN2C(=O)[C@@H](NC(=O)[C@H](Cc2ccccc2)NC(=O)N2CCOCC2)CCCNC1=O` [Compound 330, Fbo-Phe-[Orn-Pro-cha-Trp-Nle]] ({Morpholide-CO}-F[Orn]P[dCha]W[Nle]; lactam 2-C), the IC50 (read-out: activity (group)) is 0.05 to 0.2 µM.
The same measure, in the same setting: for `CCCC[C@@H]1NC(=O)[C@H](Cc2c[nH]c3ccccc23)NC(=O)[C@@H](CC2CCCCC2)NC(=O)[C@@H]2CCCN2C(=O)[C@@H](NC(=O)[C@H](Cc2ccccc2)N(C)C)CCCNC1=O` [Compound 331, Fbp-[Orn-Pro-cha-Trp-Nle]] (NMe2Phe-[Orn]P[dCha]W[Nle]; lactam 1-C) the value was 0.05 to 0.2 µM.
